One experiment concerns firefly luciferase. Put plainly: Loss of luciferase activity after siRNA transfection, Promega Dual-Luciferase Reporter Assay (Example 2, FIG. 3). The class given is cell-based. As to conditions: MDA231 stably expressing luciferase, control non-transfected cell line. As for the experimental part:
(§1) For each transfection mixture (which are examples of compositions in accordance with the present invention), a lipitoid or lipitoid/cholesteroid combination delivery vehicle was prepared to a working concentration of 0.5 mM in water and mixed to yield a uniform solution. The siRNA was prepared to a working concentration of 20 μM in buffer supplied with the siRNAs. In this example, the siRNAs were for Akt1 mRNA and had the sequence […] (SEQ ID No: 1) with two 2′ O-methyl UU (RNA) nucleotide 3′-overhangs and phosphodiester links throughout (available from Integrated DNA Technologies). The siRNA was diluted in OptiMEM™ (Gibco/BRL), in a microfuge tube, to 1 μM, or approximately 15 μg oligo/ml of OptiMEM™. In a separate microfuge tube, vehicle, typically in the amount of about 3.75 nmol vehicle/100 pmol siRNA, was diluted into the same volume of OptiMEM™ used to dilute the siRNA. […] Note that the exact ratio of siRNA to vehicle must be determined empirically for each cell type, but generally is about this amount. The diluted siRNA was immediately added to the diluted vehicle and mixed by pipetting up and down. The mixture was allowed to incubate at room temperature for 10 minutes.
Cells were plated on tissue culture dishes one day in advance of transfection, in growth media with serum, to yield a density at transfection of 60-90%. The siRNA/vehicle mixture was added to the cells immediately after mixing and incubation, to a final concentration of 50-100 nM siRNA in half the normal growth medium volume. Cells were incubated with the transfection mixture at 37° C., 5% CO2 for 4-24 hours. […]
Transfection mixtures were prepared using siRNA against firefly luciferase (CGUACGCGGAAUACUUCGA (SEQ ID No: 2); from Elbashir et al., Nature, 411, 494 (2001)) and several different delivery vehicles in accordance with the present invention as described herein (L1, L2, L1/C1, L4 1L1/3C1) substantially as described in Example 1. Luciferase activity was quantified with the Promega Dual-Luciferase Reporter Assay System according to package directions. […]

Another experiment deals with Akt1 mRNA. In words: siRNA inhibition of Akt1 mRNA in MDA435 breast cancer cells (Example 1, FIG. 2). The experiment is classed as cell-based. As to conditions: presence or absence of serum, Akt1 message normalized to average of HPRT and GUSB. As for the experimental part: as §1
Cells were plated on tissue culture dishes one day in advance of transfection, in growth media with serum, to yield a density at transfection of 60-90%. […]

On to DMPE(NaeNiaNia)3 [Lipitoid L2], for which the “luciferase activity after transfection of siRNA against luciferase” value in the experiment on firefly luciferase is “substantially reduced”. The “Akt1 expression after transfection of siRNA directed against Akt1 mRNA” value in the experiment on Akt1 mRNA was “loss of Akt1 expression”.

As for DMPE(NaeNmpeNmpe)3 [Lipitoid L1], the “luciferase activity after transfection of siRNA against luciferase” value with firefly luciferase is given as “substantially reduced”. Still for that read-out and setting: for NddNol(NaeNmpeNmpe)3 [Lipitoid L4] the value was “substantially reduced”.

For NtdNhd(NaeNmpeNmpe)3 [Lipitoid L3], in the experiment with Akt1 mRNA, the “Akt1 expression after transfection of siRNA directed against Akt1 mRNA” value was “loss of Akt1 expression”.

Values taken from patent publication US20150031743A1, “CELL TRANSFECTING FORMULATIONS OF SMALL INTERFERING RNA, RELATED COMPOSITIONS AND METHODS OF MAKING AND USE” (NOVARTIS VACCINES AND DIAGNOSTICS, INC., priority 2003, published 2015).
